Assay results taken from ChEMBL document CHEMBL1132539 (J Med Chem, 1999).

Experiments:
[1] = target: Glutamyl aminopeptidase (Homo sapiens, UniProt Q07075); assay: Binding affinity against recombinant Aminopeptidase A
[2] = target: T1, Aminopeptidase N (Sus scrofa, UniProt P15145)
T1 sequence (P15145 whole entry): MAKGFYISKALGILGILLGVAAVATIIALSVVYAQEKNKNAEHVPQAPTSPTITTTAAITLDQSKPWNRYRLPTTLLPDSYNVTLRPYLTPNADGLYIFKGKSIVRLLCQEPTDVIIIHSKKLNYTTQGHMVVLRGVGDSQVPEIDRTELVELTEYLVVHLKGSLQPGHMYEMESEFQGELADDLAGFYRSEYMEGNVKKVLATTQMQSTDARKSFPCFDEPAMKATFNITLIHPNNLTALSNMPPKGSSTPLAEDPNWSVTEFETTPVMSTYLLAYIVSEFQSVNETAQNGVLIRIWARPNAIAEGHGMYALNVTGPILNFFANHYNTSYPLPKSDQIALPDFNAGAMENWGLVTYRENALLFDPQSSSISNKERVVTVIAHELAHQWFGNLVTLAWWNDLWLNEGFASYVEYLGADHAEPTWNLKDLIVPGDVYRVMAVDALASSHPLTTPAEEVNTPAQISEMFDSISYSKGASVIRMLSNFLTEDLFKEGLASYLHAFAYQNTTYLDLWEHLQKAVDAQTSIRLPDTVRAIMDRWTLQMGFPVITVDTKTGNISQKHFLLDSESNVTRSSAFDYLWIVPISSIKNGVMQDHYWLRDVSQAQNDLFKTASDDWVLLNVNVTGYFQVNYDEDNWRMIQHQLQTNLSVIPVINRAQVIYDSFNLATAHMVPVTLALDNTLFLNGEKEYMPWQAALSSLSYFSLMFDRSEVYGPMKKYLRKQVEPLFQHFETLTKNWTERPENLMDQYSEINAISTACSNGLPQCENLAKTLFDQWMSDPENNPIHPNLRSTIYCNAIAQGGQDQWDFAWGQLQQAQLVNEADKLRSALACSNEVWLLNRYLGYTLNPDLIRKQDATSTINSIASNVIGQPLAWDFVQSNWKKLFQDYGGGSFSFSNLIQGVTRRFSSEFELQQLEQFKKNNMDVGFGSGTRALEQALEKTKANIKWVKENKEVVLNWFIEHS
Description: Binding affinity against aminopeptidase N from pig kidney

[3] = target: T2, Neprilysin (Oryctolagus cuniculus, UniProt P08049); assay: Binding affinity against NEP from rabbit kidney(neutral endopeptidase)
T2 sequence (P08049 whole entry): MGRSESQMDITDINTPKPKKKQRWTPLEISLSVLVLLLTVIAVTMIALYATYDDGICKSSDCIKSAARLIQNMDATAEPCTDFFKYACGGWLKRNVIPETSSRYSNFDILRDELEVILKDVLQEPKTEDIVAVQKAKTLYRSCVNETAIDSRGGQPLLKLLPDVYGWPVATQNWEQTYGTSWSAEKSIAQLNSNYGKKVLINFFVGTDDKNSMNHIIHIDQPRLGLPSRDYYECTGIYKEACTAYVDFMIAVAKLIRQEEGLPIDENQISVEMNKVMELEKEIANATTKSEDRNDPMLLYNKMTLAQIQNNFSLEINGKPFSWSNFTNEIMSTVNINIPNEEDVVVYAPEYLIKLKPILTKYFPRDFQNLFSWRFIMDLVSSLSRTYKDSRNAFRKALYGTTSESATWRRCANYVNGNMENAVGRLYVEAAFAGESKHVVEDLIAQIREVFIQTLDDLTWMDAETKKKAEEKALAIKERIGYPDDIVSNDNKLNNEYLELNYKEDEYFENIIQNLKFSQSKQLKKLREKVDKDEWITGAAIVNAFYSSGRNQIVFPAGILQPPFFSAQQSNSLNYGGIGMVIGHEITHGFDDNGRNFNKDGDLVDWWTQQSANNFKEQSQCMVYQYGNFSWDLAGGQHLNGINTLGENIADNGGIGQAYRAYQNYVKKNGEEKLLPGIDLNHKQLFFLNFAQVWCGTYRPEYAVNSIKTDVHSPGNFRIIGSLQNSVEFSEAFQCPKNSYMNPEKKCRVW

[4] = target: T3, Angiotensin-converting enzyme (Rattus norvegicus, UniProt P47820); assay: Binding affinity against Angiotensin I converting enzyme from rat testis
T3 sequence (P47820 whole entry): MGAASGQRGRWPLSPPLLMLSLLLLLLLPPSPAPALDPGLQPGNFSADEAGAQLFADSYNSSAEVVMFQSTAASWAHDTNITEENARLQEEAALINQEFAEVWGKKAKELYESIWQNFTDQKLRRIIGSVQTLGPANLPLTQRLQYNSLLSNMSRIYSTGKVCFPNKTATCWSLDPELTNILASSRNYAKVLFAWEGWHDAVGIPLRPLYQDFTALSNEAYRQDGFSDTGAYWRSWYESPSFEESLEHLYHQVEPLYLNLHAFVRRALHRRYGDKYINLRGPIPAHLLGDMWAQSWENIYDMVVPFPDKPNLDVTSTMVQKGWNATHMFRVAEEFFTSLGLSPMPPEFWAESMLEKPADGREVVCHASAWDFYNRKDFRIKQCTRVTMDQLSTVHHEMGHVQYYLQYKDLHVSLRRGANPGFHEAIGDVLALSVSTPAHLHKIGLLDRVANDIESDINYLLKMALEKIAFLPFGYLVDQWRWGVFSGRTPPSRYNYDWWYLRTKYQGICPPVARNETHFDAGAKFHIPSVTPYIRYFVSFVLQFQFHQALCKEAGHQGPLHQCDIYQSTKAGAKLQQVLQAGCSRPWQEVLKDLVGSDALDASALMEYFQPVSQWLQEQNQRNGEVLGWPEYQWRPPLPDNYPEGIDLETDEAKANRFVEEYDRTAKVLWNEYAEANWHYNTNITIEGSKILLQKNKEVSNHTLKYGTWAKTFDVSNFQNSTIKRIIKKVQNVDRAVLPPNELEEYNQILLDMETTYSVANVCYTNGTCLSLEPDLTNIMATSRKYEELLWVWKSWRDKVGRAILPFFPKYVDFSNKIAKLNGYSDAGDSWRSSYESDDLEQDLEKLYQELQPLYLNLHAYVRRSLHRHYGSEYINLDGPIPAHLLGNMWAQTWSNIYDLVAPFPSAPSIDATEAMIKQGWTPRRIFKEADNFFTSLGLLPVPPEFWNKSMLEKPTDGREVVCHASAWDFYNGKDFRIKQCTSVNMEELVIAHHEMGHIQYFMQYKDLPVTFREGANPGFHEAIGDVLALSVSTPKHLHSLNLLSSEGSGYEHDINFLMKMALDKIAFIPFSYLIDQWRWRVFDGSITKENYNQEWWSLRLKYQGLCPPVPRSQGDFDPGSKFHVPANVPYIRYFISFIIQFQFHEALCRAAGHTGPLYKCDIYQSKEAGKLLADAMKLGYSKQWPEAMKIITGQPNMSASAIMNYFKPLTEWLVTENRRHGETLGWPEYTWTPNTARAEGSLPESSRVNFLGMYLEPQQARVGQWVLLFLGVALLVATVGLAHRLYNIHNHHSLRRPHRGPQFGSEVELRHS

Glutamyl aminopeptidase, sequence (Q07075 whole entry): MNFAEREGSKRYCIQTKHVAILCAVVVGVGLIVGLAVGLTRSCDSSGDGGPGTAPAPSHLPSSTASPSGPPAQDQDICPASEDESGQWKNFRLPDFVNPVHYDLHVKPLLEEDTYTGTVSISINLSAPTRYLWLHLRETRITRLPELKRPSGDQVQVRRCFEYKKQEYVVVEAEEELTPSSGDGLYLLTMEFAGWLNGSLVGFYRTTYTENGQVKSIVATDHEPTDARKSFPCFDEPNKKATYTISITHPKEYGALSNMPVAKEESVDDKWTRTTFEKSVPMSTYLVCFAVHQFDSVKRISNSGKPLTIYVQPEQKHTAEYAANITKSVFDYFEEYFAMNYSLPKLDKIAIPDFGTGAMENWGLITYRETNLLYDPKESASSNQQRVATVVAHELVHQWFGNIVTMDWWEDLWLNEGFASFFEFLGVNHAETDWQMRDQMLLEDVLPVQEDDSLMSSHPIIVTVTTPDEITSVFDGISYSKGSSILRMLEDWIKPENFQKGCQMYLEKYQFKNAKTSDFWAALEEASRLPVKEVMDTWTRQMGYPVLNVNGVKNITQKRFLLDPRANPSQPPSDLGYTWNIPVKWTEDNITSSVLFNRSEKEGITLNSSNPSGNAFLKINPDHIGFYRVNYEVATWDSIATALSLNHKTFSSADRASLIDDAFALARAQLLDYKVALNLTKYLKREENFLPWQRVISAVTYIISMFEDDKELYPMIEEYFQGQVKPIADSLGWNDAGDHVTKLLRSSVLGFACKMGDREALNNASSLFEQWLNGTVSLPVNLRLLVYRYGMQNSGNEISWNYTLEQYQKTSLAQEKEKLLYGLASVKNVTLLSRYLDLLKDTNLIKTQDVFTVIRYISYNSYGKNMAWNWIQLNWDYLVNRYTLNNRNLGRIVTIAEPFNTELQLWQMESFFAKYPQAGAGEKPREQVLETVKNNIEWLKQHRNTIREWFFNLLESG

SMILES	Ki [1] [nM]	Ki [2] [nM]	Ki [3] [nM]	Ki [4] [nM]
CC[C@@H](C)[C@H](NC(=O)[C@@H](S)[C@H](N)CCS(=O)(=O)O)C(=O)O	1200	> 10000		
CC[C@@H](C)[C@H](NC(=O)[C@@H](S)[C@H](N)CCS(=O)(=O)O)C(=O)N[C@@H](CC(=O)O)C(=O)O	53	> 100000		
CC[C@@H](C)[C@H](NC(=O)[C@H](S)[C@H](N)CCS(=O)(=O)O)C(N)=O	145	> 10000		
CC[C@@H](C)[C@H](NCC(S)C(N)CCS(N)(=O)=O)C(=O)N[C@@H](CC(=O)O)C(=O)O (some centres undefined)	51	3400		
CC[C@@H](C)[C@H](NC(=O)[C@@H](S)[C@H](N)CCS(=O)(=O)O)C(N)=O	4200	> 10000		
N[C@H](CCS(=O)(=O)O)[C@@H](S)C(=O)N[C@@H](Cc1ccc(O)cc1)C(=O)N[C@@H](CC(=O)O)C(=O)O	4.3	31000	34	1800
CC[C@@H](C)[C@H](NC(=O)[C@H](S)[C@H](N)CCS(=O)(=O)O)C(=O)O	40	> 10000		
CC[C@@H](C)[C@H](NC(=O)[C@H](S)[C@H](N)CCS(=O)(=O)O)C(=O)N[C@@H](CC(=O)O)C(=O)O	3.2	> 100000	22	1200
CC[C@@H](C)[C@H](NC(=O)[C@H](S)[C@@H](N)CCC(=O)O)C(=O)N[C@@H](CC(=O)O)C(=O)O	13	120		
CC[C@@H](C)[C@H](NC(=O)[C@H](S)[C@H](N)CCS(=O)(=O)O)C(=O)N1CCC(C(=O)O)[C@@H]1C(=O)O (some centres undefined)	3.83		520	1090
CC[C@@H](C)[C@H](NC(=O)C(S)C(N)CCS(N)(=O)=O)C(=O)N[C@@H](CC(=O)O)C(=O)O (some centres undefined)	80	28000		
CC[C@@H](C)[C@H](NC(=O)[C@H](S)[C@H](N)CCC(=O)O)C(=O)N[C@@H](CC(=O)O)C(=O)O	3.56	> 10000	4	1800
CC[C@@H](C)[C@H](NC(=O)[C@@H](S)[C@@H](N)CCC(=O)O)C(=O)N[C@@H](CC(=O)O)C(=O)O	16	3900		
CC[C@@H](C)[C@H](NC(=O)[C@@H](S)[C@H](N)CCS(=O)(=O)O)C(=O)N[C@@H](CS(=O)(=O)O)C(=O)O	83.3			
CC[C@@H](C)[C@H](NC(=O)[C@@H](S)[C@H](N)CCS(=O)(=O)O)C(=O)N1CCC(C(=O)O)[C@@H]1C(=O)O (some centres undefined)	240			
CC[C@@H](C)[C@H](NC(=O)[C@@H](S)[C@H](N)CCS(=O)(=O)O)C(=O)N[C@@H](CC(=O)O)C(N)=O	470	51000		
CC[C@H](C)[C@@H](NC(=O)[C@@H](S)[C@H](N)CCS(=O)(=O)O)C(=O)N[C@@H](CC(=O)O)C(=O)O	292	> 100000		

SMILES	Ki [1] [nM]	Ki [2] [nM]	Ki [3] [nM]	Ki [4] [nM]
NC(CCS(N)(=O)=O)C(S)C(=O)N[C@@H](Cc1ccc(O)cc1)C(=O)N[C@@H](CC(=O)O)C(=O)O (some centres undefined)	150	7000		
N[C@H](CCS(=O)(=O)O)[C@H](S)C(=O)N[C@@H](Cc1ccc(O)cc1)C(=O)N[C@@H](CCS(=O)(=O)O)C(=O)O	73.3			
N[C@H](CCS(=O)(=O)O)[C@@H](S)C(=O)N[C@@H](Cc1ccc(O)cc1)C(=O)N[C@@H](CCS(=O)(=O)O)C(=O)O	9.3		520	660
CC[C@@H](C)[C@H](NC(=O)[C@@H](S)[C@H](N)CCS(=O)(=O)O)C(=O)N[C@H](CC(=O)O)C(=O)O	283	> 100000		
CC[C@@H](C)[C@H](NC(=O)[C@@H](S)[C@H](N)CCS(=O)(=O)O)C(=O)N1CCC(C(=O)O)[C@H]1C(=O)O (some centres undefined)	110			
CC[C@@H](C)[C@H](NC(=O)[C@@H](S)[C@@H](N)CCS(=O)(=O)O)C(=O)N[C@@H](CC(=O)O)C(=O)O	50	> 100000		
N[C@H](CCS(=O)(=O)O)[C@H](S)C(=O)N[C@@H](Cc1ccc(O)cc1)C(=O)N[C@@H](CC(=O)O)C(=O)O	27	48000		
CC[C@@H](C)[C@H](NC(=O)[C@@H](S)[C@H](N)CCP(=O)(O)O)C(=O)N[C@@H](CC(=O)O)C(=O)O	910	> 10000		
CC[C@@H](C)[C@H](NC(=O)[C@H](S)[C@H](N)CCP(=O)(O)O)C(=O)N[C@@H](CC(=O)O)C(=O)O	12	> 10000	5.4	2200
CC[C@@H](C)[C@H](NC(=O)[C@H](S)[C@H](N)CCS(=O)(=O)O)C(=O)N[C@@H](CC(=O)O)C(N)=O	15	44000		
CC[C@@H](C)[C@H](NC(=O)[C@H](S)[C@H](N)CCS(=O)(=O)O)C(=O)N1CCC(C(=O)O)[C@H]1C(=O)O (some centres undefined)	0.873		219	259
CC[C@H](C)[C@@H](NC(=O)[C@H](S)[C@H](N)CCS(=O)(=O)O)C(=O)N[C@@H](CC(=O)O)C(=O)O	14.7	> 100000		
CC[C@@H](C)[C@H](NC(=O)[C@H](S)[C@@H](N)CCS(=O)(=O)O)C(=O)N[C@@H](CC(=O)O)C(=O)O	20	23000		
CC[C@@H](C)[C@H](NC(=O)[C@H](S)[C@H](N)CCS(=O)(=O)O)C(=O)N[C@H](CC(=O)O)C(=O)O	5.36	> 100000		
CC[C@@H](C)[C@H](NC(=O)[C@@H](S)[C@H](N)CCC(=O)O)C(=O)N[C@@H](CC(=O)O)C(=O)O	267	> 10000		
CC[C@@H](C)[C@H](NC(=O)[C@H](S)[C@H](N)CCS(=O)(=O)O)C(=O)N[C@@H](CS(=O)(=O)O)C(=O)O	3.6		17	1210
